Measurements taken from article PMC11435058, “Synthesis of New Thiazole-Privileged Chalcones as Tubulin Polymerization Inhibitors with Potential Anticancer Activities” (Pharmaceuticals, 2024).

What was measured:
T-47D = test: NCI-60 anticancer screen (SRB; single dose and five doses); conditions: Homo sapiens, T47D
HT29 = test: as above; conditions: Homo sapiens
OVCAR-3 = test: cells; conditions: Homo sapiens
MDA-MB-435 = test: NCI-60 anticancer screen (SRB; single dose and five doses); conditions: Homo sapiens
HOP-62 = test: as above; conditions: Homo sapiens
SW-620 = test: as above; conditions: Homo sapiens
U251 = test: as above; conditions: Homo sapiens
SF-295 = test: as above; conditions: Homo sapiens
786-0 = test: as above; conditions: Homo sapiens
SK-OV-3 = test: as above; conditions: Homo sapiens
SNB-75 = test: as above
SK-MEL-2 = test: as above; conditions: Homo sapiens
SK-MEL-28 = test: as above; conditions: Homo sapiens
OVCAR-5 = test: as above; conditions: Homo sapiens
HL-60(TB) = test: as above; conditions: Homo sapiens
KM12 = test: as above; conditions: Homo sapiens
A549/ATCC = test: as above; conditions: Homo sapiens
IGROV1 = test: as above; conditions: Homo sapiens
NCI-H460 = test: as above; conditions: Homo sapiens
OVCAR-4 = test: as above; conditions: Homo sapiens
TK-10 = test: as above; conditions: Homo sapiens
MDA-MB-468 = test: as above; assay type: cell-based, human
Outline: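 NCI panel of about 60 human tumor cell lines treated with compound at a single concentration (10μM) for 48 h. Growth measured by SRB protein staining and expressed as percent growth of treated versus untreated control cells.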

CAKI-1 = test: as above; conditions: Homo sapiens
HOP-92 = test: as above; conditions: Homo sapiens
UACC-62 = test: as above; conditions: Homo sapiens

SMILES: Cc1[nH]c(=S)sc1C(=O)/C=C/c1ccc(Cl)cc1 [2f, (E)-3-(4-Chlorophenyl)-1-(4-Methyl-2-Thioxo-2,3-Dihydrothiazol-5-yl)Prop-2-En-1-One]
- GI50 (T-47D): 3.47 µM
- IC50 (T-47D): 14.1 µM
- activity at 10 µM (T-47D; 48 h, read-out: Growth Percentage): 1.38%
- CC50 (T-47D; read-out: LC50): 81.3 µM
- IC (TGI) (T-47D; read-out: TGI): 19.1 µM
- GI50 (HT29; HT-29): 6.76 µM
- IC50 (HT29; HT-29): 9.55 µM
- activity at 10 µM (HT29; HT-29, 48 h, read-out: Growth Percentage): 31.2%
- CC50 (HT29; HT-29, read-out: LC50): 53.7 µM
- IC (TGI) (HT29; HT-29, read-out: TGI): 20.9 µM
- GI50 (OVCAR-3; OVCAR-3): 2.82 µM
- activity at 10 µM (OVCAR-3; OVCAR-3, 48 h, read-out: Growth Percentage): -24.2%
- IC50 (OVCAR-3; OVCAR-3, OVCAR-3, five doses): 2.82 µM
- IC50 (OVCAR-3; OVCAR-3, five-dose, Ovarian Cancer OVCAR-3): 6.46 µM
- CC50 (OVCAR-3; OVCAR-3, read-out: LC50): 33.1 µM
- IC (TGI) (OVCAR-3; OVCAR-3, read-out: TGI): 10.7 µM
- GI50 (MDA-MB-435; MDA-MB-435): 5.5 µM
- IC50 (MDA-MB-435; MDA-MB-435): 11 µM
- activity at 10 µM (MDA-MB-435; MDA-MB-435, 48 h, read-out: Growth Percentage): 22.5%
- CC50 (MDA-MB-435; MDA-MB-435, read-out: LC50): 49 µM
- IC (TGI) (MDA-MB-435; MDA-MB-435, read-out: TGI): 19.1 µM
- GI50 (HOP-62; HOP-62): 5.37 µM
- IC50 (HOP-62; HOP-62): 12 µM
- activity at 10 µM (HOP-62; HOP-62, 48 h, read-out: Growth Percentage): -2.73%
- CC50 (HOP-62; HOP-62, read-out: LC50): 72.4 µM
- IC (TGI) (HOP-62; HOP-62, read-out: TGI): 22.9 µM
- GI50 (SW-620; SW-620): 3.09 µM
- IC50 (SW-620; SW-620): 4.37 µM
- activity at 10 µM (SW-620; SW-620, 48 h, read-out: Growth Percentage): 8.02%
- CC50 (SW-620; SW-620, read-out: LC50): 38.9 µM
- IC (TGI) (SW-620; SW-620, read-out: TGI): 11.2 µM
- GI50 (U251; U-251): 3.39 µM
- IC50 (U251; U-251): 4.79 µM
- activity at 10 µM (U251; U-251, 48 h, read-out: Growth Percentage): 11.3%
- CC50 (U251; U-251, read-out: LC50): 40.7 µM
- IC (TGI) (U251; U-251, read-out: TGI): 13.2 µM
- GI50 (SF-295; SF-295): 15.8 µM
- IC50 (SF-295; SF-295): 28.8 µM
- activity at 10 µM (SF-295; SF-295, 48 h, read-out: Growth Percentage): 42.6%
- CC50 (SF-295; SF-295, read-out: LC50): 55 µM
- IC (TGI) (SF-295; SF-295, read-out: TGI): 29.5 µM
- GI50 (786-0; 786-0): 4.68 µM
- IC50 (786-0; 786-0): 7.76 µM
- activity at 10 µM (786-0; 786-0, 48 h, read-out: Growth Percentage): 16.6%
- CC50 (786-0; 786-0, read-out: LC50): 58.9 µM
- IC (TGI) (786-0; 786-0, read-out: TGI): 20.4 µM
- GI50 (SK-OV-3; SK-OV-3): 15.8 µM
- IC50 (SK-OV-3; SK-OV-3): 30.2 µM
- activity at 10 µM (SK-OV-3; SK-OV-3, 48 h, read-out: Growth Percentage): 60.8%
- CC50 (SK-OV-3; SK-OV-3, read-out: LC50): 66.1 µM
- IC (TGI) (SK-OV-3; SK-OV-3, read-out: TGI): 32.4 µM
- GI50 (SNB-75; Homo sapiens, SNB-75): 2.19 µM
- IC50 (SNB-75; Homo sapiens, SNB-75): 8.51 µM
- CC50 (SNB-75; Homo sapiens, SNB-75, read-out: LC50): 28.8 µM
- TGI (SNB-75; five-dose, CNS Cancer SNB-75): 6.76 µM
- GI50 (SK-MEL-2; SK-MEL-2): 13.8 µM
- IC50 (SK-MEL-2; SK-MEL-2): 27.5 µM
- activity at 10 µM (SK-MEL-2; SK-MEL-2, 48 h, read-out: Growth Percentage): 58.4%
- CC50 (SK-MEL-2; SK-MEL-2, read-out: LC50): 56.2 µM
- IC (TGI) (SK-MEL-2; SK-MEL-2, read-out: TGI): 28.2 µM
- GI50 (SK-MEL-28; SK-MEL-28): 14.5 µM
- IC50 (SK-MEL-28; SK-MEL-28): 26.3 µM
- activity at 10 µM (SK-MEL-28; SK-MEL-28, 48 h, read-out: Growth Percentage): 45.7%
- CC50 (SK-MEL-28; SK-MEL-28, read-out: LC50): 53.7 µM
- IC (TGI) (SK-MEL-28; SK-MEL-28, read-out: TGI): 28.2 µM
- GI50 (OVCAR-5; OVCAR-5): 17.8 µM
- IC50 (OVCAR-5; OVCAR-5): 32.4 µM
- activity at 10 µM (OVCAR-5; OVCAR-5, 48 h, read-out: Growth Percentage): 50.8%
- CC50 (OVCAR-5; OVCAR-5, read-out: LC50): 60.3 µM
- IC (TGI) (OVCAR-5; OVCAR-5, read-out: TGI): 33.1 µM
- GI50 (HL-60(TB); HL-60): 3.55 µM
- IC50 (HL-60(TB); HL-60): 5.89 µM
- activity at 10 µM (HL-60(TB); HL-60, 48 h, read-out: Growth Percentage): -0.98%
- CC50 (HL-60(TB); HL-60, read-out: LC50): > 100 µM
- IC (TGI) (HL-60(TB); HL-60, read-out: TGI): 38 µM
- GI50 (KM12; KM12): 4.17 µM
- IC50 (KM12; KM12): 8.13 µM
- activity at 10 µM (KM12; KM12, 48 h, read-out: Growth Percentage): 6.77%
- CC50 (KM12; KM12, read-out: LC50): 45.7 µM
- IC (TGI) (KM12; KM12, read-out: TGI): 16.6 µM
- GI50 (A549/ATCC; A549): 10.7 µM
- IC50 (A549/ATCC; A549): 16.2 µM
- activity at 10 µM (A549/ATCC; A549, 48 h, read-out: Growth Percentage): 61.1%
- CC50 (A549/ATCC; A549, read-out: LC50): 52.5 µM
- IC (TGI) (A549/ATCC; A549, read-out: TGI): 24 µM
- GI50 (IGROV1; IGROV-1): 13.2 µM
- IC50 (IGROV1; IGROV-1): 25.7 µM
- CC50 (IGROV1; IGROV-1, read-out: LC50): 93.3 µM
- IC (TGI) (IGROV1; IGROV-1, read-out: TGI): 34.7 µM
- GI50 (NCI-H460; NCI-H460): 12 µM
- IC50 (NCI-H460; NCI-H460): 19.1 µM
- activity at 10 µM (NCI-H460; NCI-H460, 48 h, read-out: Growth Percentage): 82.6%
- CC50 (NCI-H460; NCI-H460, read-out: LC50): 69.2 µM
- IC (TGI) (NCI-H460; NCI-H460, read-out: TGI): 28.8 µM
- GI50 (OVCAR-4; OVCAR-4): 13.8 µM
- IC50 (OVCAR-4; OVCAR-4): 25.1 µM
- activity at 10 µM (OVCAR-4; OVCAR-4, 48 h, read-out: Growth Percentage): 76.3%
- CC50 (OVCAR-4; OVCAR-4, read-out: LC50): 55 µM
- IC (TGI) (OVCAR-4; OVCAR-4, read-out: TGI): 27.5 µM
- GI50 (TK-10; TK-10): 15.1 µM
- IC50 (TK-10; TK-10): 28.2 µM
- activity at 10 µM (TK-10; TK-10, 48 h, read-out: Growth Percentage): 40.4%
- CC50 (TK-10; TK-10, read-out: LC50): 55 µM
- IC (TGI) (TK-10; TK-10, read-out: TGI): 28.8 µM
- activity at 10 µM (MDA-MB-468; Homo sapiens, 48 h, MDA-MB-468, dose of 10 μM, read-out: Growth Percentage): -21.2%
- IC50 (MDA-MB-468; Homo sapiens, MDA-MB-468, MDA-MB-468, Breast Cancer, five dose): 12 µM
- IC50 (MDA-MB-468; Homo sapiens, MDA-MB-468, MDA-MB-468, five doses): 2.51 µM
- GI50 (MDA-MB-468; Homo sapiens, MDA-MB-468, Breast Cancer, five dose): 2.51 µM
- CC50 (MDA-MB-468; Homo sapiens, MDA-MB-468, Breast Cancer, five dose, read-out: LC50 (the source's name)): 30.2 µM
- TGI (MDA-MB-468; MDA-MB-468, Breast Cancer, five dose): 8.32 µM
- GI50 (CAKI-1; CAKI-1): 4.47 µM
- IC50 (CAKI-1; CAKI-1): 8.71 µM
- activity at 10 µM (CAKI-1; CAKI-1, 48 h, read-out: Growth Percentage): 53.2%
- CC50 (CAKI-1; CAKI-1, read-out: LC50): 43.6 µM
- IC (TGI) (CAKI-1; CAKI-1, read-out: TGI): 17.4 µM
- GI50 (HOP-92; HOP-92): 11.5 µM
- IC50 (HOP-92; HOP-92): 30.2 µM
- activity at 10 µM (HOP-92; HOP-92, 48 h, read-out: Growth Percentage): 34.8%
- CC50 (HOP-92; HOP-92, read-out: LC50): 63.1 µM
- IC (TGI) (HOP-92; HOP-92, read-out: TGI): 26.9 µM
- GI50 (UACC-62; UACC-62): 9.77 µM
- IC50 (UACC-62; UACC-62): 17 µM
- activity at 10 µM (UACC-62; UACC-62, 48 h, read-out: Growth Percentage): 33.9%
- IC (TGI) (UACC-62; UACC-62, read-out: TGI): 22.4 µM
